The target in one assay is T1, K-Ras G12S (Homo sapiens, UniProt P01116, G12S).
T1 construct: made in house; host or cells: E. coli (e.g., BL21 (DE3))
The experiment in a line: HTRF assay of the K-Ras / SOS1 interaction. The assay is classed as biochemical. The following applies: IC50 (against K-Ras G12D) to IC50 (against K-Ras G12S). The gist of the method:
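Compounds (duplicates, 10 µM to 0.01 µM) were incubated ≥~10 min with Eu-labelled GST-K-Ras G12S and XL665-labelled His-hSOS1 in HEPES pH 7.4 buffer containing NaCl, DTT, BSA and Igepal. Disruption measured as HTRF emission ratio 665/620 nm, fitted to IC50.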
(Time-resolved FRET reads energy transfer from a long-lived donor to a nearby acceptor.)

For a further assay, the system named is A549 cells. Description: Cell proliferation assay (CellTiter-Glo), K-Ras G12S cells. The following applies: for IC50: Homo sapiens; for ratio of IC50 against a G12D cell line to IC50 against a G12S cell line: K-Ras G12D cell line such as GP2D relative to K-Ras G12S cell line such as A549, greater than 1, 2, 3, 4, 5, 10, 15 or even greater, 8640 min. The assay is classed as cell-based. The method in brief: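 A549 cells (K-Ras G12S) in RPMI-1640 with 10% FBS, seeded in standard or ultra-low-attachment plates and dosed next day with a 10-point 3-fold series. Viability read about 6 days later by CellTiter-Glo luminescence. IC50 from four-parameter fit.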
In general terms: ATP-based viability assays read luminescence as a measure of living cells.

Where [1] appears, read: A549, A549 cells (K-Ras G12S), bin ≤ 500 nM, read-out: Inhibition of A549 Cells (IC50).
[2] abbreviates: A549, A549 cells (K-Ras G12S), bin 500 nM to 5 µM, read-out: Inhibition of A549 Cells (IC50).

Where two headings read alike, the source gives them in different places. Some results are limits rather than exact numbers.

T1 sequence (P01116 1-188 isoform P01116-2 G12S): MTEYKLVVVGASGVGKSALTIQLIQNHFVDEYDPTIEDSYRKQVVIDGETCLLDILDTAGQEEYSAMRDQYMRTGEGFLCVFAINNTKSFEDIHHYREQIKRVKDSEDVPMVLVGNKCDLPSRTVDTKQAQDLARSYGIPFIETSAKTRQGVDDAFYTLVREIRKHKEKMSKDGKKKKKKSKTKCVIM

The term IC50 denotes the concentration that inhibits the measured activity by half. As for `N#Cc1c(N)sc2c(F)ccc(-c3c(Cl)cc4c(N5CCC6C5CN6C(=O)n5cncn5)nc(OC[C@@]56CCCN5C[C@H](F)C6)nc4c3F)c12` (stereo partly drawn) [Compound A183, 4-(4-(6-(1H-1,2,4-triazole-1-carbonyl)-2,6-diazabicyclo[3.2.0]heptan-2-yl)-6-chloro-8-fluoro-2-(((2R,7aS)-2-fluorotetrahydro-1H-pyrrolizin-7a(5H)-yl)methoxy)quinazolin-7-yl)-2-amino-7-fluorobenzo[b]thiophene-3-carbonitrile], the “Ratio of IC50 KRAS G12D vs. IC50 KRAS G12S” value at K-Ras G12S is given as “A (A: indicates that the ratio of IC50 against KrasG12D vs. IC50 against KrasG12S is 1-fold or greater)”. The IC50 in the assay on A549 cells (setting [1]) is not above 500 nM. For the same compound, in the assay with A549 cells, the “ratio of IC50 against a G12D cell line to IC50 against a G12S cell line” value (“ratio of IC50 against a G12D cell line” below) is given as “greater than 1”.

For the compound `Cc1nc(C)n(C(=O)N2CC3(COCCN(c4nc(OC[C@@]56CCCN5C[C@H](F)C6)nc5c(F)c(-c6ccc(F)c7sc(N)c(C#N)c67)c(Cl)cc45)C3)C2)n1` [Compound A185, 2-amino-4-(6-chloro-4-(2-(3,5-dimethyl-1H-1,2,4-triazole-1-carbonyl)-6-oxa-2,9-diazaspiro[3.6]decan-9-yl)-8-fluoro-2-(((2R,7aS)-2-fluorotetrahydro-1H-pyrrolizin-7a(5H)-yl)methoxy)quinazolin-7-yl)-7-fluorobenzo[b]thiophene-3-carbonitrile], at K-Ras G12S, the “Ratio of IC50 KRAS G12D vs. IC50 KRAS G12S” value is given as “A (A: indicates that the ratio of IC50 against KrasG12D vs. IC50 against KrasG12S is 1-fold or greater)”. Further, in the assay with A549 cells (setting [1]), the IC50 was not above 500 nM.

In the case of `Nc1nc2c(-c3c(Cl)cc4c(N5CCCN(C(=O)n6cncn6)CC5)nc(OC[C@@]56CCCN5C[C@H](F)C6)nc4c3F)ccc(F)c2s1` [Compound A191, (4-(7-(2-amino-7-fluorobenzo[d]thiazol-4-yl)-6-chloro-8-fluoro-2-(((2R,7aS)-2-fluorotetrahydro-1H-pyrrolizin-7a(5H)-yl)methoxy)quinazolin-4-yl)-1,4-diazepan-1-yl)(1H-1,2,4-triazol-1-yl)methanone], the “Ratio of IC50 KRAS G12D vs. IC50 KRAS G12S” value at K-Ras G12S is “A (A: indicates that the ratio of IC50 against KrasG12D vs. IC50 against KrasG12S is 1-fold or greater)”. For the same compound, the half-inhibitory concentration (IC50) with A549 cells (setting [2]) was 500 to 5000 nM.

On to `N#Cc1c(N)sc2c(F)ccc(-c3c(Cl)cc4c(N5CCOC6(CN(C(=O)n7ccnn7)C6)C5)nc(OC[C@@]56CCCN5C[C@H](F)C6)nc4c3F)c12` [Compound A195, 4-(4-(2-(1H-1,2,3-triazole-1-carbonyl)-5-oxa-2,8-diazaspiro[3.5]nonan-8-yl)-6-chloro-8-fluoro-2-(((2R,7aS)-2-fluorotetrahydro-1H-pyrrolizin-7a(5H)-yl)methoxy)quinazolin-7-yl)-2-amino-7-fluorobenzo[b]thiophene-3-carbonitrile], for which the “Ratio of IC50 KRAS G12D vs. IC50 KRAS G12S” value on K-Ras G12S is given as “A (A: indicates that the ratio of IC50 against KrasG12D vs. IC50 against KrasG12S is 1-fold or greater)”. Besides, in the assay with A549 cells (setting [1]), the IC50 is not above 500 nM.

Regarding `N#Cc1c(N)sc2c(F)ccc(-c3c(Cl)cc4c(N5CCOC6CN(C(=O)n7cncn7)CC65)nc(OC[C@@]56CCCN5C[C@H](F)C6)nc4c3F)c12` (stereo partly drawn) [Compound A218, 4-(4-(6-(1H-1,2,4-triazole-1-carbonyl)hexahydropyrrolo [3,4-b][1,4]oxazin-4(4aH)-yl)-6-chloro-8-fluoro-2-(((2R,7aS)-2-fluorotetrahydro-1H-pyrrolizin-7a(5H)-yl)methoxy)quinazolin-7-yl)-2-amino-7-fluorobenzo[b]thiophene-3-carbonitrile], the “Ratio of IC50 KRAS G12D vs. IC50 KRAS G12S” value at K-Ras G12S is “A (A: indicates that the ratio of IC50 against KrasG12D vs. IC50 against KrasG12S is 1-fold or greater)”. In addition, in the assay with A549 cells (setting [1]), the IC50 is not above 500 nM. Further, in the assay on A549 cells, the “ratio of IC50 against a G12D cell line” value is recorded as “greater than 1”.

`N#Cc1ccn(C(=O)N2C3CCC2CN(c2nc(OC[C@@]45CCCN4C[C@H](F)C5)nc4c(F)c(-c5ccc(F)c6sc(N)c(C#N)c56)c(Cl)cc24)C3)n1` [Compound A224, 1-(3-(7-(2-amino-3-cyano-7-fluorobenzo[b]thiophen-4-yl)-6-chloro-8-fluoro-2-(((2R,7aS)-2-fluorotetrahydro-1H-pyrrolizin-7a(5H)-yl)methoxy)quinazolin-4-yl)-3,8-diazabicyclo[3.2. 1]octane-8-carbonyl)-1H-pyrazole-3-carbonitrile]: the “Ratio of IC50 KRAS G12D vs. IC50 KRAS G12S” value at K-Ras G12S is “A (A: indicates that the ratio of IC50 against KrasG12D vs. IC50 against KrasG12S is 1-fold or greater)”. In addition, in the assay with A549 cells (setting [2]), the IC50 is 500 to 5000 nM.

As to `CN(C)C1CN(c2nc(N3CCOC4(CN(C(=O)n5cncn5)C4)C3)c3cc(Cl)c(-c4ccc(F)c5sc(N)c(C#N)c45)c(F)c3n2)C1` [Compound A256, 4-(4-(2-(1H-1,2,4-triazole-1-carbonyl)-5-oxa-2,8-diazaspiro[3.5]nonan-8-yl)-6-chloro-2-(3-(dimethylamino)azetidin-1-yl)-8-fluoroquinazolin-7-yl)-2-amino-7-fluorobenzo[b]thiophene-3-carbonitrile], the “Ratio of IC50 KRAS G12D vs. IC50 KRAS G12S” value on K-Ras G12S is on record as “A (A: indicates that the ratio of IC50 against KrasG12D vs. IC50 against KrasG12S is 1-fold or greater)”. For the same compound, the half-maximal inhibitory concentration (IC50) with A549 cells (setting [1]) is not above 500 nM.

On to `N#Cc1c(N)sc2c(F)ccc(-c3c(Cl)cc4c(N[C@H]5C[C@H]6CC[C@@H](C5)N6C(=O)n5cncn5)nc(OC[C@@]56CCCN5C[C@H](F)C6)nc4c3F)c12` [Compound A257, 4-(4-(((1R,3r,5S)-8-(1H-1,2,4-triazole-1-carbonyl)-8-azabicyclo[3.2.1]octan-3-yl)amino)-6-chloro-8-fluoro-2-(((2R,7aS)-2-fluorotetrahydro-1H-pyrrolizin-7 a(5H)-yl)methoxy)quinazolin-7-yl)-2-amino-7-fluorobenzo[b]thiophene-3-carbonitrile], for which the “Ratio of IC50 KRAS G12D vs. IC50 KRAS G12S” value at K-Ras G12S is listed as “A (A: indicates that the ratio of IC50 against KrasG12D vs. IC50 against KrasG12S is 1-fold or greater)”. The half-maximal inhibitory concentration (IC50) with A549 cells (A549, read-out: Inhibition of A549 Cells (IC50)) was 500 to 5000 nM.

Turning to `N#Cc1c(N)sc2c(F)ccc(-c3c(Cl)cc4c(OC5CCCCN(C(=O)n6cncn6)C5)nc(OC[C@@]56CCCN5C[C@H](F)C6)nc4c3F)c12` (stereo partly drawn) [Compound A258, 4-(4-((1-(1H-1,2,4-triazole-1-carbonyl)azepan-3-yl)oxy)-6-chloro-8-fluoro-2-(((2R,7aS)-2-fluorotetrahydro-1H-pyrrolizin-7a(5H)-yl)methoxy)quinazolin-7-yl)-2-amino-7-fluorobenzo[b]thiophene-3-carbonitrile], the “Ratio of IC50 KRAS G12D vs. IC50 KRAS G12S” value on K-Ras G12S is on record as “A (A: indicates that the ratio of IC50 against KrasG12D vs. IC50 against KrasG12S is 1-fold or greater)”. Also, the IC50 in the assay with A549 cells (setting [1]) was not above 500 nM.

Consider `N#Cc1c(N)sc2c(F)ccc(-c3c(Cl)cc4c(N5CCC6(CN(C(=O)n7cncn7)C6)C5)nc(OC[C@@]56CCCN5C[C@H](F)C6)nc4c3F)c12` [Compound A277, 4-(4-(2-(1H-1,2,4-triazole-1-carbonyl)-2,6-diazaspiro[3.4]octan-6-yl)-6-chloro-8-fluoro-2-(((2R,7aS)-2-fluorotetrahydro-1H-pyrrolizin-7a(5H)-yl)methoxy)quinazolin-7-yl)-2-amino-7-fluorobenzo[b]thiophene-3-carbonitrile], for which the “Ratio of IC50 KRAS G12D vs. IC50 KRAS G12S” value at K-Ras G12S is given as “A (A: indicates that the ratio of IC50 against KrasG12D vs. IC50 against KrasG12S is 1-fold or greater)”. Further, the 50% inhibitory concentration (IC50) in the assay with A549 cells (setting [1]) was not above 500 nM. For the same compound, the “ratio of IC50 against a G12D cell line” value with A549 cells is recorded as “greater than 1”.

Take `Cc1nc(C)n(C(=O)N2CC3(C2)CN(c2nc(OC[C@@]45CCCN4C[C@H](F)C5)nc4c(F)c(-c5ccc(F)c6sc(N)c(C#N)c56)c(Cl)cc24)CCO3)n1` [Compound A283, 2-amino-4-(6-chloro-4-(2-(3,5-dimethyl-1H-1,2,4-triazole-1-carbonyl)-5-oxa-2,8-diazaspiro[3.5]nonan-8-yl)-8-fluoro-2-(((2R,7aS)-2-fluorotetrahydro-1H-pyrrolizin-7a(5H)-yl)methoxy)quinazolin-7-yl)-7-fluorobenzo[b]thiophene-3-carbonitrile]: at K-Ras G12S, the “Ratio of IC50 KRAS G12D vs. IC50 KRAS G12S” value is “A (A: indicates that the ratio of IC50 against KrasG12D vs. IC50 against KrasG12S is 1-fold or greater)”. Besides, the IC50 in the assay on A549 cells (setting [1]) is not above 500 nM.

For `N#Cc1c(N)sc2c(F)ccc(-c3c(Cl)cc4c(N5CC6(CCCCN(C(=O)n7cncn7)C6)C5)nc(OC[C@@]56CCCN5C[C@H](F)C6)nc4c3F)c12` [Compound A285, 4-(4-(6-(1H-1,2,4-triazole-1-carbonyl)-2,6-diazaspiro[3.6]decan-2-yl)-6-chloro-8-fluoro-2-(((2R,7aS)-2-fluorotetrahydro-1H-pyrrolizin-7a(5H)-yl)methoxy)quinazolin-7-yl)-2-amino-7-fluorobenzo[b]thiophene-3-carbonitrile], the “Ratio of IC50 KRAS G12D vs. IC50 KRAS G12S” value on K-Ras G12S is “A (A: indicates that the ratio of IC50 against KrasG12D vs. IC50 against KrasG12S is 1-fold or greater)”. Further, in the assay on A549 cells (setting [1]), the concentration for half-maximal inhibition (IC50) was not above 500 nM.

As for `C#Cc1c(F)ccc2cc(O)cc(-c3ncc4c(N5CCOCC6(CN(C(=O)n7cnc(C)n7)C6)C5)nc(OC[C@@]56CCCN5C[C@H](F)C6)nc4c3F)c12` [Compound A298, (9-(7-(8-ethynyl-7-fluoro-3-hydroxynaphthalen-1-yl)-8-fluoro-2-(((2R,7aS)-2-fluorotetrahydro-1H-pyrrolizin-7a(5H)-yl)methoxy)pyrido[4,3-d]pyrimidin-4-yl)-6-oxa-2,9-diazaspiro[3.6]decan-2-yl)(3-methyl-1H-1,2,4-triazol-1-yl)methanone], the “Ratio of IC50 KRAS G12D vs. IC50 KRAS G12S” value at K-Ras G12S is “A (A: indicates that the ratio of IC50 against KrasG12D vs. IC50 against KrasG12S is 1-fold or greater)”. Further, the concentration for half-maximal inhibition (IC50) in the assay on A549 cells (setting [2]) was 500 to 5000 nM. Besides, the “ratio of IC50 against a G12D cell line” value in the assay on A549 cells is listed as “greater than 1”.

The values above are taken from patent EP4389751A1, “HETEROCYCLIC COMPOUNDS AND USES THEREOF” (Kumquat Biosciences Inc., priority 2021, dated 2024).
